Experimental data taken from publication PMC7615677 (Science translational medicine, 2023).
Entries after “also recorded” stand apart in the source; their conditions may differ.

Experiments:
hERG = hERG (Homo sapiens, UniProt Q12809); assay: In vitro pharmacology panel (Eurofins); parameters: purchased Eurofins (Cerep/DiscoverX SafetyScreen44 in vitro pharmacology panel); conditions: human hERG potassium channel, [3H]dofetilide binding assay, probe [3H] Dofetilide, read-out: activity (% of DMSO control)
From the text: Listed values represent the percent change relative to the DMSO control activity. When an IC50 had to be determined, eight different concentrations were included. All values are the mean of assay readout duplicates.

[1] = Seahorse mitochondrial stress test; assay type: cell-based; conditions: human, HepG2 cells; read-out: OCR Basal AC50
Description: (§1) Seahorse® 96 well plates were seeded with HepG2 cells and incubated overnight (37°C, 5% CO2). The media in all plate wells was then replaced with Seahorse® assay media and the plates were incubated (37°C, CO2 free) for a further 1 hour before placing in the Seahorse® XFe96 analyser (Agilent Technologies Inc, USA). […] OCR and ECAR were measured for 45 minutes before the sequential addition of oligomycin (ATP synthase inhibitor), FCCP (carbonyl cyanide 4-(trifluoromethoxy) phenylhydrazone, protonophore uncoupler) and rotenone plus antimycin A (Electron transport chain Complex I and III inhibitors respectively). Multiple measurements of OCR and ECAR were made following each of these additions.
(§2) Mean ± standard deviation of the compound ratio data were plotted vs log concentration and curves fitted (as described in [24]) and the minimum effective concentration (MEC) determined using limits based on the DMSO vehicle mean ± 2 standard deviations or, where these limits were deemed too narrow, the DMSO vehicle mean ± minimum limits set for each parameter. The AC50 was calculated using the curve and historical maximum (activation) and minimum (inhibition) responses and is defined as the concentration at which 50% of the maximum or minimum effect is observed, provided a clear concentration response relationship is seen.

HepG2 cells = assay: Seahorse mitochondrial stress test; assay type: cell-based
Description: as §1, §2

L. infantum = assay: PK/PD analysis of liver burden versus cumulative unbound AUC; assay type: in vivo, mice; conditions: Mouse – L. infantum; estimated using the fitted parameters
From the text: To determine the correlation between the pharmacokinetic (PK) and pharmacodynamic (PD) data, repeat dose profiles in mice and hamsters following single and twice daily dosing were simulated using the fitted parameters.
Other parameters were less well correlated to efficacy, presumably given that none reflect the cumulative exposure profile with an extended treatment regimen. […] Results for mice infected with L. donovani were similar to those for L. infantum (Table S15).

[2] = Plasma protein binding (rapid equilibrium dialysis); assay type: in vitro ADME; conditions: diluted to 10% in PBS, pH 7.4
Description: Human plasma was purchased from Innovative Research, Inc (Novi, MI, USA). Dog (beagle), rat (Sprague Dawley) and hamster (golden Syrian) plasma were procured from Valley Biomedical Products and Services, Inc. (Winchester, VA, USA). Mouse (BALB/c) plasma was collected in-house (animals sourced from Monash Animal Services, Monash University). All plasma was stored frozen at -20°C until use.
Plasma protein binding was assessed using rapid equilibrium dialysis (RED) according to methods published previously ([10]). […] Parallel spiked aliquots of 10% plasma were used to assess compound stability under the same incubation conditions. At the completion of the dialysis period, aliquots were taken from the donor and dialysate chambers to obtain measurements of the total and free concentration, respectively. The pH of the matrix and dialysate were confirmed to be within pH 7.4 ± 0.1 for the duration of the experiment.
Dialysis was conducted for 6 h and parallel non-dialyzed samples were included to confirm the absence of compound degradation. Binding to hepatocytes (at a cell density of 1 x 10^6 cells/mL) was calculated from the measured microsomal binding (at 1 mg/mL) as described previously ([26]). The fraction unbound (fu) was determined from the ratio of the dialysate to the donor concentration, assuming that the system was at steady state at the end of the dialysis period. For plasma, the data were corrected for the dilution factor to give a binding value for neat plasma according to previously published methods ([27]).

[3] = In vitro metabolism, liver microsomes; assay type: in vitro ADME, mouse
Description: Compounds were spiked into microsomal matrix prepared in 0.1 M pH 7.4 phosphate buffer containing magnesium chloride (final concentration of 3.3 mM), equilibrated for 5-10 min at 37°C. The reaction was initiated with the addition of freshly prepared solution of NADPH (final 1.3 mM). Control samples without co-factor were included for comparison. Aliquots of the reaction mixtures were taken periodically over 60 min and quenched with acetonitrile containing internal standards (metolazone and diazepam). Quenched samples were maintained on ice for approximately 20-30 min, centrifuged (for 5 min) and the supernatant was analyzed by LC-MS.
In vitro intrinsic clearance (CLint, μL/min/mg or μL/min/10^6 cells) values were calculated from the apparent first order degradation rate constant divided by the microsome concentration or the hepatocyte cell number (10^6 viable cells/mL). In vitro CLint values were then divided by the fraction unbound in the in vitro test system (to give CLint,u) and scaled to in vivo values (mL/min/kg) using published physiological scaling factors ([28]). Blood clearance in each species was then calculated using the well-stirred model of hepatic extraction (equation 2) where Q is the hepatic blood flow and fu,blood is calculated from fu,plasma/B:P: [2] PredictedCLblood=Q x fu,blood x CLint,u/Q+fu,blood x CLint,u
Blood clearance values were converted to plasma clearance by multiplying by the B:P.

[4] = system: L. donovani axenic amastigotes; assay: Drug sensitivity assay, axenic amastigotes; assay type: cell-based; conditions: Leishmania donovani
Description: The clonal L. donovani cell line LdBOB (derived from MHOM/SD/62/1S-CL2D) was grown as promastigotes at 28°C and as axenic amastigotes at 37°C, as described previously ([25]).
To examine the effects of test compounds on growth in 96-well plates, promastigote or axenic amastigote cultures seeded at 5 × 10^4 parasites mL^–1 were incubated in the presence of 2-fold serial dilutions of test compounds for 72 h. Following incubation, 50 μM resazurin was added to each well and fluorescence (excitation of 528 nm and emission of 590 nm) measured after a further 3 h incubation.

Sequence of hERG (Q12809 whole entry): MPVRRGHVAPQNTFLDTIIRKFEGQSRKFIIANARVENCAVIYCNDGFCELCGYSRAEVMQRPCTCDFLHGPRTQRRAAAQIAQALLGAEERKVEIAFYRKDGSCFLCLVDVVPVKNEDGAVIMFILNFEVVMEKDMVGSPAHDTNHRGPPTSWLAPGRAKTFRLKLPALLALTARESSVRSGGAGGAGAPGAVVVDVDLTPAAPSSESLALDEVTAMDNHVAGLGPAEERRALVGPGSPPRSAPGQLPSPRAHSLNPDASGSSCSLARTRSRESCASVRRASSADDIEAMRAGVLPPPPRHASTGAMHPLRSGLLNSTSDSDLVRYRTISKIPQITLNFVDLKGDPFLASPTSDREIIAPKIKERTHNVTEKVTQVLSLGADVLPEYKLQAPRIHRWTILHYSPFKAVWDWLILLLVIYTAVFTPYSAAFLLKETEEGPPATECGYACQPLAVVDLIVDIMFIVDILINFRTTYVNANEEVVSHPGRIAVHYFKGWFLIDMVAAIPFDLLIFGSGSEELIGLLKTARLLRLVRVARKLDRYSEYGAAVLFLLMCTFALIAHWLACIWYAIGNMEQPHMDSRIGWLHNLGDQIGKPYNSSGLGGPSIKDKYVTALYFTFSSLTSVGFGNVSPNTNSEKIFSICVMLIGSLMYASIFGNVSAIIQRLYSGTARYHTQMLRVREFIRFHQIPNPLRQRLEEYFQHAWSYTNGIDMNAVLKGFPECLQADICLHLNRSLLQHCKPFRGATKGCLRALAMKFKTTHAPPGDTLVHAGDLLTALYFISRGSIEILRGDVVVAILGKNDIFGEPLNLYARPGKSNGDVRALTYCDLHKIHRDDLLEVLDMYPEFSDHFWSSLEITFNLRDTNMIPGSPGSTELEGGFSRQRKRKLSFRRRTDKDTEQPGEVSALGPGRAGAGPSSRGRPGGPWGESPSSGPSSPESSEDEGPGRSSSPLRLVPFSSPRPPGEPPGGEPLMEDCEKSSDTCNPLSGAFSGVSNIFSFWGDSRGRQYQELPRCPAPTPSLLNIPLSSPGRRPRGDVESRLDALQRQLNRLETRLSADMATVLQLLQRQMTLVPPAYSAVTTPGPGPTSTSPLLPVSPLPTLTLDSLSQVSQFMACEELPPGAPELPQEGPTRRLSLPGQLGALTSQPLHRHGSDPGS

In the case of `Cc1[nH]c2nc(N)nc(C)c2c1-c1ccc(C#N)c2c1OCO2` [DNDI-6174], the activity at 10 µM (hERG) is reported as 94.2%, the AC50 at 45 min [1] is reported as greater than 200000 nM and the “OCR Basal minimum effect concentration (MEC)” value (HepG2 cells) is reported as 95.6 µM. For the same compound, the “Reserve Capacity, ECAR, Maximum Capacity, ATP production, in words” value (HepG2 cells) was “No significant response observed on reserve; also recorded: no changes in Reserve Capacity, ECAR, Maximum Capacity or ATP production”, the “margin of Seahorse OCR MEC over free concentration at predicted human therapeutic plasma Cmax” value (HepG2 cells) was “approximately 187 fold” and the “ECAR, in words” value (HepG2 cells; 200 μM) was “transient increase”. The “OCR Basal maximum reduction” value (HepG2 cells; 200 μM) was 14%, the “unbound ED95” value (L. infantum) was 27 and the fraction unbound at 24 h ([2]; BALB/c, mouse) was 0.12. It also gave a fraction unbound at 24 h ([2]; Sprague Dawley, rat) of 0.069, a fraction unbound at 24 h ([2]; beagle, dog) of 0.05 and a fraction unbound at 24 h ([2]; golden Syrian, hamster) of 0.09. For the same compound, the fraction unbound at 24 h ([2]; human) was 0.059, the “Microsome predicted in vivo CLplasma” value ([3]; Mouse) was 12 mL/min/kg and the “In vitro Microsome CLint” value ([3]; Mouse, 2 independent experiments) was 13 ± 0.38 µL/min/mg. It also gave a microsomal CLint at 0.5 µM ([3]; mouse, liver microsomes, pH 7.4, Mouse, 2 independent experiments, read-out: In vitro Microsome CLint) of 17 ± 0.59 µL/min/mg and an EC50 [4] of 75 ± 2 nM.
